Reference: PubChem BioAssay AID2060503 (Molecular Pharmacology Branch, DTP, NCI, 2025)

Tested on: 817829-284-R-J1-PDC complex spheroids, viability
Assay: Anticancer human tumor 817829-284-R-J1-PDC patient-derived colon adenocarcinoma cell line growth inhibition [GQUAD]
Settings: for IC50: curve of first compound; for viability, T/C: stronger effect = lower value
From the text: DNA G-quadruplex Stabilizer Agents in Combinations in Complex Spheroids
A high-throughput screen of multi-cell type tumor spheroids was designed to identify active combinations of DNA G-quadruplex stabilizer agents and targeted small molecules. Complex spheroids include a stromal component modeled by human endothelial cells (HUVEC) and fibroblasts modeled by human mesenchymal stem cells (MSCs). The concentration ranges selected for each drug and investigational agent were based upon clinically achievable concentrations if the clinical Cmax of the agent was known.
Compounds. The drugs and investigational agents: pidnarulex (CX-5461; NSC782164), APTO-253 (NSC789042), BRACO-19 (NSC847499), peposertib (NSC802822), ceralasertib (NSC780249), elimusertib (NSC800525), camonsertib (NSC841442), AZD-1390 (NSC803789), olaparib (NSC753686), talazoparib (NSC767125), ART-558 (NSC835418), sotorasib (NSC818433), MRTX-1133 (NSC836407), SN-38 (NSC673596), topotecan (NSC609699), etoposide (NSC141540), doxorubicin (NSC123127), gemcitabine (NSC613327), 5-fluorouracil (NSC19893), paclitaxel (NSC125973), vemurafenib (NSC761431), panobinostat (NSC761190), R-306465 (JNJ-16241199; NSC773264), adavosertib (NSC754352), TP-3654 (NSC805149), carboplatin (NSC241240), KSQ-4279 (NSC840948), and staurosporine (NSC755774) were obtained from the National Cancer Institute (NCI) Developmental Therapeutics Program Chemical Repository (34). The FDA-approved anticancer drug set is available from the NCI Developmental Therapeutics Program. […] The stock solutions were prepared in dimethyl sulfoxide (DMSO, Sigma-Aldrich, St. Louis, MO, cat. D2650) at 800-fold the tested concentration and stored at -70 degrees C prior to their use. All drugs and investigational agents were tested over a range starting from a high concentration at or near the clinical Cmax and decreasing in half-log increments. If the clinical Cmax for an agent had not been determined, the highest concentration tested was 10 microM.
2.3 Cell Culture. All cells were maintained in an incubator at 37 degrees C and 5% CO2 with 95% humidity. The PDC lines were cultured according to standard operating procedures established by the NCI PDMR. All PDCs were thawed and cultured in Matrigel-coated flasks prepared with a working solution of 1X Ham's F-12 nutrient mix, without supplementation (Invitrogen, cat. 11765054), 100 U/mL penicillin-streptomycin (Invitrogen, cat. 15140122), and 2.5% Matrigel (Corning Inc., cat. 354248) for the first three passages. The 857933-349-R-J2-PDC line was cultured in 6C/Colon 1B media, which includes advanced DMEM/F-12 (Thermo Fisher Scientific, cat. 12634028), 10 mM HEPES (Thermo Fisher Scientific, cat. 15630080), 1X GlutaMAX supplement (Thermo Fisher Scientific, cat. 35050061), 0.1 mg/mL primocin (InvivoGen, cat. ant-pm-2), 10% defined fetal bovine serum, heat inactivated (HyClone Laboratories Inc., cat. SH30070.03HI), 50% L-WRN conditioned media (ATCC, cat. CRL-3276), 1.25 mM N-Acetyl-L-cysteine (Sigma-Aldrich, cat. A9165), 10 mM nicotinamide (Sigma-Aldrich, cat. N0636), 1X B-27 supplement (Thermo Fisher Scientific, cat. 17504044), 1X N-2 supplement (Thermo Fisher Scientific, cat. 17502048), 10 microM Y-27632 dihydrochloride (Tocris Bioscience, cat. 1254), and 50 ng/mL human EGF recombinant protein (Thermo Fisher Scientific, cat. PHG0311). The 485176-168-R4-J1-PDC line was cultured in Panc media, which includes all 6C/Colon 1B media components plus 100 ng/mL human FGF-10 (Thermo Fisher Scientific, cat. 100-26), 500 nM SB-431542 (Selleckchem, cat. S1067), and gastrin (Tocris, cat. 3006).
[…]
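Also: spheroids exposed to agents for 7 days before readout.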
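For viability, T/C in this document: percent viability relative to DMSO vehicle control taken as 100%.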

In the case of `CC(C)(O)C1CCC(Nc2ccc3ncc(-c4cccc(C(F)(F)F)c4)n3n2)CC1` (configuration not stated) + Cc1[nH]c2ccc(F)cc2c1-c1nc2c3cccnc3c3ncccc3c2[nH]1, the IC50 (second compound 0.0316 µM) is reported as 2500 nM, the IC50 (second compound 0.1 µM) is reported as 1310 nM and the IC50 (second compound 0.316 µM) is reported as 955 nM. For the same molecule, the IC50 (second compound 1 µM) was 620 nM, the IC50 (second compound 3.16 µM) was < 31.6 nM and the IC50 (second compound 10 µM) was < 31.6 nM. For the same molecule, the viability, T/C (second compound 0.0316 µM, first compound 0.0316 µM) was 109%, the viability, T/C (second compound 0.0316 µM, first compound 0.1 µM) was 104% and the viability, T/C (second compound 0.0316 µM, first compound 0.316 µM) was 88.8%. For the same molecule, the viability, T/C (second compound 0.0316 µM, first compound 1 µM) was 64%, the viability, T/C (second compound 0.0316 µM, first compound 3.16 µM) was 32.5% and the viability, T/C (second compound 0.0316 µM, first compound 10 µM) was 57.5%. It also gave a viability, T/C (second compound 0.1 µM, first compound 0.0316 µM) of 94.6%, a viability, T/C (second compound 0.1 µM, first compound 0.1 µM) of 110% and a viability, T/C (second compound 0.1 µM, first compound 0.316 µM) of 104%. The viability, T/C (second compound 0.1 µM, first compound 1 µM) was 51.9%, the viability, T/C (second compound 0.1 µM, first compound 3.16 µM) was 25.5% and the viability, T/C (second compound 0.1 µM, first compound 10 µM) was 61.6%. For the same molecule, the viability, T/C (second compound 0.316 µM, first compound 0.0316 µM) was 106%, the viability, T/C (second compound 0.316 µM, first compound 0.1 µM) was 111% and the viability, T/C (second compound 0.316 µM, first compound 0.316 µM) was 84.5%. It also gave a viability, T/C (second compound 0.316 µM, first compound 1 µM) of 52%, a viability, T/C (second compound 0.316 µM, first compound 3.16 µM) of 25.7% and a viability, T/C (second compound 0.316 µM, first compound 10 µM) of 54.1%. The viability, T/C (second compound 1 µM, first compound 0.0316 µM) was 107%, the viability, T/C (second compound 1 µM, first compound 0.1 µM) was 109% and the viability, T/C (second compound 1 µM, first compound 0.316 µM) was 78.9%. It also gave a viability, T/C (second compound 1 µM, first compound 1 µM) of 30.9%, a viability, T/C (second compound 1 µM, first compound 3.16 µM) of 8.2% and a viability, T/C (second compound 1 µM, first compound 10 µM) of 32.7%. For the same molecule, the viability, T/C (second compound 3.16 µM, first compound 0.0316 µM) was 3.3%, the viability, T/C (second compound 3.16 µM, first compound 0.1 µM) was 3.58% and the viability, T/C (second compound 3.16 µM, first compound 0.316 µM) was 2.98%. For the same molecule, the viability, T/C (second compound 3.16 µM, first compound 1 µM) was 1.34%, the viability, T/C (second compound 3.16 µM, first compound 3.16 µM) was 0.58% and the viability, T/C (second compound 3.16 µM, first compound 10 µM) was 1.69%. It also gave a viability, T/C (second compound 10 µM, first compound 0.0316 µM) of 2.48%, a viability, T/C (second compound 10 µM, first compound 0.1 µM) of 2.78% and a viability, T/C (second compound 10 µM, first compound 0.316 µM) of 2.18%. The viability, T/C (second compound 10 µM, first compound 1 µM) was 1.41%, the viability, T/C (second compound 10 µM, first compound 3.16 µM) was 0.83% and the viability, T/C (second compound 10 µM, first compound 10 µM) was 1.5%.
